Read-outs that look alike come from different tables or passages of the source.

Data set [1] deals with Trypanosoma cruzi intracellular amastigotes. Put plainly: Activity against intracellular amastigotes of T. cruzi in infected peritoneal macrophages (EC50). Format: cell-based, Trypanosoma cruzi (Y strain). As to conditions: for EC50: Trypanosoma cruzi, Peritoneal macrophage, in Mus musculus, read-out: EC50 ± SD; for EC50 / EC50 ± SD: 48 h; for SI (selectivity index): ratio CC50 against NCTC cells/EC50 against amastigote forms. On the procedure: Trypanosoma cruzi trypomastigotes (Y strain) were routinely maintained in Rhesus monkey kidney cells (LLC-MK2 –ATCC CCL 7), using RPMI-1640 medium supplemented with 2% FBS at 37°C in a 5% CO2-humidified incubator. The murine conjunctive cells (NCTC clone 929, ATCC) were maintained in RPMI-1640 medium supplemented with 10% FBS at 37°C in a 5% CO2 –humidified incubator. Peritoneal macrophages, used for the amastigote assays, were obtained by washing the peritoneal cavity of BALB/c mice with RPMI-1640 medium supplemented with 10% FBS and were kept at 37°C in a 5% CO2-humidified incubator. To evaluate the activity against intracellular amastigotes, the peritoneal macrophages obtained from BALB/c mice were infected with trypomastigotes forms of T. cruzi. The macrophages were plated on a 16-well chamber slide (NUNC plate, Merck; 1 x 10^5/well) and incubated for 24 h at 37°C in a 5% CO2-humidified incubator. […] After 2 h of incubation at 37°C in a 5% CO2-humidified incubator, the non-internalized parasites were removed by washing with RPMI-1640 medium. Compounds 1–12 and 7a-7e were incubated by serial dilution (100–1.56 μM) with the infected macrophages (48 h at 37°C, 5% CO2) using benznidazole as the standard drug. At the end of the assay, slides were fixed with MeOH and stained with Giemsa prior to counting under a light microscope (EVOS M5000, THERMO). The EC50 values were calculated as previously described. EC50 and CC50 data represent the mean of two independent representative assays tested in duplicate and were calculated using sigmoid dose-response curves with Graph–Pad Prism 6.0 software (San Diego, CA, USA).

A short description of data set [2]: Cytotoxicity against mammalian cells, MTT assay (CC50). The settings on record: mouse. Format: cell-based, murine. The method, then: Trypanosoma cruzi trypomastigotes (Y strain) were routinely maintained in Rhesus monkey kidney cells (LLC-MK2 –ATCC CCL 7), using RPMI-1640 medium supplemented with 2% FBS at 37°C in a 5% CO2-humidified incubator. The murine conjunctive cells (NCTC clone 929, ATCC) were maintained in RPMI-1640 medium supplemented with 10% FBS at 37°C in a 5% CO2 –humidified incubator. Peritoneal macrophages, used for the amastigote assays, were obtained by washing the peritoneal cavity of BALB/c mice with RPMI-1640 medium supplemented with 10% FBS and were kept at 37°C in a 5% CO2-humidified incubator.
The cytotoxicity assays were performed using NCTC cells-clone 929. The cells were counted, seeded (6 x 10^4 cells/well), and incubated with compounds 1–12 and 7a- 7e (200–1.56 μM—serial dilution) for 48 h at 37°C in a 5% CO2-humidified incubator. The optical density was determined using a FilterMax F5 (Molecular Devices) at 570 nm. The 50% cytotoxic concentration (CC50) values were determined by MTT assay. Selectivity index (SI) values were calculated using the ratio: CC50 against NCTC cells/EC50 against parasites form (amastigotes).
EC50 and CC50 data represent the mean of two independent representative assays tested in duplicate and were calculated using sigmoid dose-response curves with Graph–Pad Prism 6.0 software (San Diego, CA, USA).
For orientation: Tetrazolium assays rely on reduction of a dye to a coloured formazan, in cell work by metabolically active cells.

Data set [3] concerns T. cruzi amastigotes. The settings on record: cited from earlier work.
Data set [4] concerns mammalian cells. Further details: method as in PMID 31132603. As to conditions: cytotoxicity, previous work; cited from earlier work.
[5] abbreviates: intracellular amastigote forms of T. cruzi in BALB/c peritoneal macrophages, 100–1.56 μM.
The mark [6] stands for this setting: NCTC clone 929 cells, 48 h, MTT, 200–1.56 μM, read-out: CC50.

In general, EC50 refers to the concentration needed to bring the measured effect to its halfway point. What is called CC50 is the concentration that lowers cell viability or growth by half. Take `CCOC(=O)C1CCC(=O)N1` (stereo in doubt) [Compound 1, ethyl (R)-pyroglutamate]: the EC50 in data set [1] (setting [5]) is greater than 100 µM. The CC50 at 48 h in data set [2] (setting [6]) was greater than 200 µM.
`O=C(Cn1ccnc1[N+](=O)[O-])NCc1ccccc1` [Benznidazole, benznidazole, reference compound]: the EC50 in data set [1] (setting [5]) worked out at 18.7 ± 4.1 µM. The “SI (selectivity index)” value in data set [1] was greater than 10.7. For the same compound, in data set [2] (setting [6]), the CC50 at 48 h was greater than 200 µM.
As to `O=Cc1c[nH]c2ccccc12` [Compound 2, indole-3-aldehyde], the EC50 in data set [1] (setting [5]) was greater than 100 µM. The compound further yielded a 50% cytotoxic concentration (CC50) at 48 h in data set [2] greater than 200 µM.
`CC1=CC(=O)CC(C)(C)[C@@]1(O)/C=C/C(C)=C\C(=O)O` [Compound 3, (+)-(S)-abscisic acid]: the EC50 in data set [1] was greater than 100 µM. Further, the half-maximal cytotoxic concentration (CC50) at 48 h in data set [2] (setting [6]) is greater than 200 µM.
In the case of `CC1(C)CC(O)CC(C)(O)/C1=C\C(=O)O` (stereo not drawn) [Compound 4, 2Z-(2,4-dihydroxy-2,6,6-trimethylcyclohexylidene)acetic acid], the EC50 in data set [1] (setting [5]) came out at 28.2 ± 2.9 µM. For the same compound, the “SI (selectivity index)” value in data set [1] is given as greater than 7.1. In addition, in data set [2], the CC50 at 48 h is greater than 200 µM.
`O=C(O)CCCCCCCC(=O)O` [Compound 5, azelaic acid]: the half-maximal effective concentration (EC50) in data set [1] (setting [5]) is greater than 100 µM. In data set [2] (setting [6]), the CC50 at 48 h was greater than 200 µM.
For `COc1cc(C(=O)O)ccc1O` [Compound 6, vanillic acid], in data set [1] (setting [5]), the EC50 was greater than 100 µM. For the same compound, the CC50 at 48 h in data set [2] (setting [6]) is greater than 200 µM.
With `CCOC(=O)c1ccc(O)c(O)c1` [Compound 7, ethyl protocatechuate], the EC50 in data set [1] (setting [5]) was 18.1 ± 0.3 µM. Besides, in data set [2] (setting [6]), the cytotoxic concentration (CC50) at 48 h is greater than 200 µM.
Consider `COC(=O)c1ccc(O)c(O)c1` [Compound 7a], for which, in data set [1] (setting [5]), the concentration giving a half-maximal response (EC50) is greater than 100 µM and the “EC50 ± SD” value was “inactive”. Further, in data set [2] (setting [6]), the CC50 at 48 h is greater than 200 µM.
Consider `CCCOC(=O)c1ccc(O)c(O)c1` [Compound 7b], for which the EC50 in data set [1] (setting [5]) is 20.4 ± 4.2 µM. Also, the “SI (selectivity index)” value in data set [1] is recorded as greater than 9.8. For the same compound, the CC50 at 48 h in data set [2] (setting [6]) was greater than 200 µM.
Regarding `CCCCOC(=O)c1ccc(O)c(O)c1` [Compound 7c], the EC50 in data set [1] (setting [5]) is 19.4 ± 6.3 µM. For the same compound, the “SI (selectivity index)” value in data set [1] is greater than 10.3. For the same compound, the 50% cytotoxic concentration (CC50) at 48 h in data set [2] (setting [6]) is greater than 200 µM.
Take `CCCCCOC(=O)c1ccc(O)c(O)c1` [Compound 7d]: the EC50 in data set [1] (setting [5]) was 12.3 ± 3.8 µM. The “SI (selectivity index)” value in data set [1] is on record as greater than 16.3. Also, the CC50 at 48 h in data set [2] (setting [6]) was greater than 200 µM.
Consider `CCCCCCOC(=O)c1ccc(O)c(O)c1` [Compound 7e], for which, in data set [1] (setting [5]), the EC50 worked out at 11.7 ± 2.7 µM. Moreover, the “SI (selectivity index)” value in data set [1] was greater than 17.1. Also, the CC50 at 48 h in data set [2] (setting [6]) was greater than 200 µM.
With `COc1cc2ccc(=O)oc2cc1O` [Compound 8, scopoletin], the EC50 in data set [1] (setting [5]) was greater than 100 µM. Also, the half-maximal cytotoxic concentration (CC50) at 48 h in data set [2] (setting [6]) is greater than 200 µM.
`COc1cc(C(=O)[C@H](CO)c2ccc(O)c(OC)c2)ccc1O` [Compound 9, (-)-evofolin B]: in data set [1] (setting [5]), the half-maximal effective concentration (EC50) worked out at 27.8 ± 0.2 µM. For the same compound, in data set [1], the “SI (selectivity index)” value is recorded as greater than 7.2. Besides, the CC50 at 48 h in data set [2] (setting [6]) is greater than 200 µM.
For `COc1cc(/C=C/C(=O)NCCc2ccc(O)cc2)ccc1O` [Compound 10, moupinamide], the concentration giving a half-maximal response (EC50) in data set [1] (setting [5]) is greater than 100 µM. Further, the CC50 at 48 h in data set [2] (setting [6]) is greater than 200 µM.
In the case of `COc1cc(C2OC(c3ccc(O)c(OC)c3)C(C)C2C)ccc1O` (stereo not drawn) [Compound 11, verrucosin], in data set [1] (setting [5]), the EC50 was 36.8 ± 4.9 µM. Moreover, the “SI (selectivity index)” value in data set [1] is listed as greater than 5.4. Moreover, the CC50 at 48 h in data set [2] (setting [6]) is greater than 200 µM.
As for `COc1cc([C@H]2O[C@@H](c3ccc(O)c(OC)c3)[C@H](C)[C@@H]2C)ccc1O` [Compound 12, nectandrin B], the EC50 in data set [1] (setting [5]) is 31 ± 0.3 µM. The “SI (selectivity index)” value in data set [1] is given as greater than 6.4. In addition, in data set [2] (setting [6]), the CC50 at 48 h was greater than 200 µM.
`C=C1OC(=O)/C(=C\CCCCCCCCCCCCCCC)[C@H]1O` [isolinderanolide E]: the EC50 in data set [3] (amastigote forms of T. cruzi) is 10.1 µM.
Consider `CCCCCCCCOC(=O)c1ccc(O)c(O)c1` [n-octyl ester of protocatechuic acid], for which the EC50 in data set [3] (T. cruzi amastigotes) is 13.9 µM. Besides, in data set [4], the half-maximal cytotoxic concentration (CC50) was 108 µM.
Consider `CCCCCCCCOC(=O)c1ccc(O)c(OC)c1` [n-octyl ester of vanillic acid], for which, in data set [3] (T. cruzi amastigotes), the 50% effective concentration (EC50) is 6.8 µM.
Take `O=C(O)c1ccc(O)c(O)c1` [protocatechuic acid, reference compound]: the concentration for a half-maximal effect (EC50) in data set [1] was greater than 100 µM. For the same compound, the “EC50 ± SD” value in data set [1] (setting [5]) was “inactive”. The CC50 at 48 h in data set [2] (setting [6]) was greater than 200 µM.
Isolinderanolide D: the 50% effective concentration (EC50) in data set [3] (amastigote forms of T. cruzi) is 25.3 µM.

The values are drawn from PMC7906415, “Metabolite profile of Nectandra oppositifolia Nees & Mart. and assessment of antitrypanosomal activity of bioactive compounds through efficiency analyses” (PLoS ONE, 2021).
